Source: patent publication US20260297060A1, “COMPOUNDS FOR THE DEGRADATION OF MUTANT BRAF” (C4 THERAPEUTICS, INC., priority 2023, published 2026)
Where two headings read alike, the source gives them in different places.

Target: T1, BRAF V600E (Homo sapiens, UniProt P15056+Q96SW2, V600E)
T1 construct: knock-in of the HiBiT tag to the endogenous BRAF V600E locus; host or cells: A375.10 (A375 clonal line, CRISPR HiBiT knock-in at the endogenous BRAF V600E locus)
Experiment: BRAF V600E HiBiT Degradation Assay
Assay type: cell-based
How it was run: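 Endogenous HiBiT knock-in on BRAF V600E in A375 cells (clone A375.10); 11-point half-log series, top 10 μM, 2, 6 or 24 h at 37° C. Lytic HiBiT luminescence, background-subtracted, normalized to DMSO; 4-parameter fit gives DC50, Emax (residual protein) and IP (inflection point).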

[1] = read-out: HiBiT-Degradation A375.10 BRAF 2 hours DC50; A375.10 cells, BRAF V600E, 2 hours
[2] = read-out: HiBiT-Degradation A375.10 BRAF 2 hours Emax, A375.10 cells, BRAF V600E, 2 hours; residual protein remaining
[3] = read-out: HiBiT-Degradation A375.10 BRAF 2 hours IP; A375.10 cells, BRAF V600E, 2 hours; inflection point
[4] = A375.10 cells, BRAF V600E, 2 hours; inflection point; read-out: HiBiT-Degradation A375.10 BRAF 2 hours IP
[5] = A375.10 cells, BRAF V600E, 2 hours; read-out: HiBiT-Degradation A375.10 BRAF 2 hours DC50

T1 sequence (P15056 whole entry V600E): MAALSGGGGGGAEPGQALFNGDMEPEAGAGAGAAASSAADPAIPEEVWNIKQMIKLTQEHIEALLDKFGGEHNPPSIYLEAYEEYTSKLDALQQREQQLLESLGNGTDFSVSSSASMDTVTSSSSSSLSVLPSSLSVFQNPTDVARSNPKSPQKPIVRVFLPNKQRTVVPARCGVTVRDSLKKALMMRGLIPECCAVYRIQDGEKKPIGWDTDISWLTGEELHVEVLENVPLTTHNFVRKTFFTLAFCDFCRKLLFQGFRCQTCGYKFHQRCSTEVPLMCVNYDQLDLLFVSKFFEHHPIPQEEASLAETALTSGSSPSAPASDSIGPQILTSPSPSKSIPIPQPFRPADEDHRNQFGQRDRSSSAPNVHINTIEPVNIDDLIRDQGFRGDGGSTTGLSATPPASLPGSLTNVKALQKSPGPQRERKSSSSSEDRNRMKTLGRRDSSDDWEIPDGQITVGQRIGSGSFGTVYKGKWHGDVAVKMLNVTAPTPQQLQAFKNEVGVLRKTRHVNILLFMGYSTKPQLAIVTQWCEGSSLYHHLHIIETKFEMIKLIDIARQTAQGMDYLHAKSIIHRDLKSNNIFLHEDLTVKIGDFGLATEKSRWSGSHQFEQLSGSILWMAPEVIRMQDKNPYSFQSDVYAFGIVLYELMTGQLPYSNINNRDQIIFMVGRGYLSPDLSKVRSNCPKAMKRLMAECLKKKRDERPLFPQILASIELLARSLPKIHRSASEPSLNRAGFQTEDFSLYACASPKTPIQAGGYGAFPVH
T1 sequence (Q96SW2 whole entry): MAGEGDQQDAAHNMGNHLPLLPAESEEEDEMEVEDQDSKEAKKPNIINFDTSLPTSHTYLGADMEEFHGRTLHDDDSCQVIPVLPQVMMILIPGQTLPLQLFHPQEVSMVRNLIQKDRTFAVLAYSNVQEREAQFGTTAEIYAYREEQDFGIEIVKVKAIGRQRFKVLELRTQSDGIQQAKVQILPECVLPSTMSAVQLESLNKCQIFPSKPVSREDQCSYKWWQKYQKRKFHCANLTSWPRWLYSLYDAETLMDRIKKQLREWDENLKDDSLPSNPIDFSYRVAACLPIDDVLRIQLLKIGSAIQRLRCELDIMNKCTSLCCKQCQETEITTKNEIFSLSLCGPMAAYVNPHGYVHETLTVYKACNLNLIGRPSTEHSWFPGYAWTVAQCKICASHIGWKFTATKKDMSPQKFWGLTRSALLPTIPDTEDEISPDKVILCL
T1 sequence (Q16531 whole entry partner): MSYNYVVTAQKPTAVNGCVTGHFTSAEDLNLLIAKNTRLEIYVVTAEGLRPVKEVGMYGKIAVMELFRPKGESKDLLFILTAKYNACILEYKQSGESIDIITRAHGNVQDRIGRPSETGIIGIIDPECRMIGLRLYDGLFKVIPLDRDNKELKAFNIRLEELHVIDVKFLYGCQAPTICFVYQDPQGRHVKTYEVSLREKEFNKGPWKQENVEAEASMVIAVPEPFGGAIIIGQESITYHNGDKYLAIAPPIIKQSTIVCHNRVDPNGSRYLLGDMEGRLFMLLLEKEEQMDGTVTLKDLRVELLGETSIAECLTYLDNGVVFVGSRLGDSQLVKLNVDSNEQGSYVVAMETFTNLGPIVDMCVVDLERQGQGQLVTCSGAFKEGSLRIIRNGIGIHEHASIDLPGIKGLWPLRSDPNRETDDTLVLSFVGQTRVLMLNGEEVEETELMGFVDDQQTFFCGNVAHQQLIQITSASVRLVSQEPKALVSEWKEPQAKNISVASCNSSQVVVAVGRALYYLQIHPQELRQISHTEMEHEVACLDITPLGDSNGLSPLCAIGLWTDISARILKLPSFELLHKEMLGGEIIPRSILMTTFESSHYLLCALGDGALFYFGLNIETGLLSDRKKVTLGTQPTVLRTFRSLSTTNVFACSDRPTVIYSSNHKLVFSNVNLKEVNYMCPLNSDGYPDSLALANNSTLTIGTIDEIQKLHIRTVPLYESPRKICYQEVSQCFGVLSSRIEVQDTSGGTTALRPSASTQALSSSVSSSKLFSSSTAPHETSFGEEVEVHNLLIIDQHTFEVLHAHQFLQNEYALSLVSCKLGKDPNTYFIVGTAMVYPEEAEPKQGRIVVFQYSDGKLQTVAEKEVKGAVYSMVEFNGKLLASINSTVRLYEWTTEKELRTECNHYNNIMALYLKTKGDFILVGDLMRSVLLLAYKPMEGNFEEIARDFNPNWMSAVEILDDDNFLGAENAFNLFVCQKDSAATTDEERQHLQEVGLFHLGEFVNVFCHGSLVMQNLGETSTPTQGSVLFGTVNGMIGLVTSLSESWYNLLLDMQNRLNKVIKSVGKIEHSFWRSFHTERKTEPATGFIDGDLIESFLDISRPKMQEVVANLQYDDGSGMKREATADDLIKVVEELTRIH

| DC50 [1] | Emax [2] | DC50 [3] | DC50 [4] | DC50 [5] | SMILES |
| --- | --- | --- | --- | --- | --- |
| < 1000 nM | < 50% | < 1000 nM |  |  | Cn1nc(N2CCC(=O)NC2=O)c2cc(F)c(N3CC4(CC(N5CCC6(CC5)CC(n5cnc7ccc(Oc8c(F)ccc(NS(=O)(=O)C9CCC9)c8C#N)cc7c5=O)C6)C4)C3)cc21 [Compound 259, N-[2-cyano-3-[3-[7-[2-[3-(2,4-dioxohexahydropyrimidin-1-yl)-5-fluoro-1-methyl-indazol-6-yl]-2-azaspiro[3.3]heptan-6-yl]-7-azaspiro[3.5]nonan-2-yl]-4-oxo-quinazolin-6-yl]oxy-4-fluoro-phenyl]cyclobutanesulfonamide] |
| < 1000 nM | < 50% | < 1000 nM |  |  | Cn1nc(N2CCC(=O)NC2=O)c2cc(F)c(N3CC4(CC(N5CCC6(CC5)CC(n5cnc7ccc(Oc8c(F)ccc(NS(=O)(=O)C9CC9)c8C#N)cc7c5=O)C6)C4)C3)cc21 [Compound 260, N-[2-cyano-3-[3-[7-[2-[3-(2,4-dioxohexahydropyrimidin-1-yl)-5-fluoro-1-methyl-indazol-6-yl]-2-azaspiro[3.3]heptan-6-yl]-7-azaspiro[3.5]nonan-2-yl]-4-oxo-quinazolin-6-yl]oxy-4-fluoro-phenyl]cyclopropanesulfonamide] |
| < 1000 nM | < 50% | < 1000 nM |  |  | Cn1nc(N2CCC(=O)NC2=O)c2cc(F)c(N3CC4(CC(N5CCC6(CC5)CC(n5cnc7ccc(Oc8c(F)ccc(NS(=O)(=O)N9CC[C@@H](F)C9)c8C#N)cc7c5=O)C6)C4)C3)cc21 [Compound 261, (3R)-N-[2-cyano-3-[3-[7-[2-[3-(2,4-dioxohexahydropyrimidin-1-yl)-5-fluoro-1-methyl-indazol-6-yl]-2-azaspiro[3.3]heptan-6-yl]-7-azaspiro[3.5]nonan-2-yl]-4-oxo-quinazolin-6-yl]oxy-4-fluoro-phenyl]-3-fluoro-pyrrolidine-1-sulfonamide] |
|  | < 50% |  | < 1000 nM | < 1000 nM | CC(C)S(=O)(=O)Nc1ccc(F)c(Oc2ccc3ncn(C4CC5(CCN(C6CC7(C6)CN(c6cc8c(cc6F)c(N6CCC(=O)NC6=O)nn8C)C7)CC5)C4)c(=O)c3c2)c1C#N (stereo not drawn) [Compound 273, N-[2-cyano-3-[3-[7-[2-[3-(2,4-dioxohexahydropyrimidin-1-yl)-5-fluoro-1-methyl-indazol-6-yl]-2-azaspiro[3.3]heptan-6-yl]-7-azaspiro[3.5]nonan-2-yl]-4-oxo-quinazolin-6-yl]oxy-4-fluoro-phenyl]propane-2-sulfonamide] |
|  | < 50% |  | < 1000 nM | < 1000 nM | Cn1nc(N2CCC(=O)NC2=O)c2cc(F)c(N3CC4(CC(N5CCC6(CC5)CC(n5cnc7ccc(Oc8c(F)ccc(NS(=O)(=O)N9C[C@H]%10C[C@H]%10C9)c8C#N)cc7c5=O)C6)C4)C3)cc21 (stereo partly drawn) [Compound 277, (1R,5S)-N-[2-cyano-3-[3-[7-[2-[3-(2,4-dioxohexahydropyrimidin-1-yl)-5-fluoro-1-methyl-indazol-6-yl]-2-azaspiro[3.3]heptan-6-yl]-7-azaspiro[3.5]nonan-2-yl]-4-oxo-quinazolin-6-yl]oxy-4-fluoro-phenyl]-3-azabicyclo[3.1.0]hexane-3-sulfonamide] |
